Results from ChEMBL document CHEMBL4507276 (2021).

Tests used:
[1] = biological target: Protein kinase C epsilon type (Homo sapiens) (UniProt Q02156); details: Compound concentration 1000.0 nM
[2] = biological target: T1, Aurora kinase A (Homo sapiens) (UniProt O14965); assay: STK6 Invitrogen selectivity data (BI); details: Compound concentration 3.0 uM
T1 sequence (whole entry): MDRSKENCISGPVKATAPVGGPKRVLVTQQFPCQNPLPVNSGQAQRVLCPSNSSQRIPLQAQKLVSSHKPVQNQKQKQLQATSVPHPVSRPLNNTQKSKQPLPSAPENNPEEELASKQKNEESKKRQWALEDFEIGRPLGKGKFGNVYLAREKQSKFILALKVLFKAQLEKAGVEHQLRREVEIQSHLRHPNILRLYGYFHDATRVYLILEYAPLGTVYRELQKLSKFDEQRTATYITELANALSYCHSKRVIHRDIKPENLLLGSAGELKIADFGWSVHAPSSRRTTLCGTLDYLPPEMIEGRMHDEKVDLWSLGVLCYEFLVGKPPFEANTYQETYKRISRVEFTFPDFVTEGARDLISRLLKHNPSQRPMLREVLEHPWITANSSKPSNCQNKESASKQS

[3] = biological target: Angiotensin-converting enzyme (Homo sapiens) (UniProt P12821); assay: ACE(HU) Cerep selectivity data (BI); details: Compound concentration 20.0 uM
Angiotensin-converting enzyme (Homo sapiens), sequence (P12821 whole entry): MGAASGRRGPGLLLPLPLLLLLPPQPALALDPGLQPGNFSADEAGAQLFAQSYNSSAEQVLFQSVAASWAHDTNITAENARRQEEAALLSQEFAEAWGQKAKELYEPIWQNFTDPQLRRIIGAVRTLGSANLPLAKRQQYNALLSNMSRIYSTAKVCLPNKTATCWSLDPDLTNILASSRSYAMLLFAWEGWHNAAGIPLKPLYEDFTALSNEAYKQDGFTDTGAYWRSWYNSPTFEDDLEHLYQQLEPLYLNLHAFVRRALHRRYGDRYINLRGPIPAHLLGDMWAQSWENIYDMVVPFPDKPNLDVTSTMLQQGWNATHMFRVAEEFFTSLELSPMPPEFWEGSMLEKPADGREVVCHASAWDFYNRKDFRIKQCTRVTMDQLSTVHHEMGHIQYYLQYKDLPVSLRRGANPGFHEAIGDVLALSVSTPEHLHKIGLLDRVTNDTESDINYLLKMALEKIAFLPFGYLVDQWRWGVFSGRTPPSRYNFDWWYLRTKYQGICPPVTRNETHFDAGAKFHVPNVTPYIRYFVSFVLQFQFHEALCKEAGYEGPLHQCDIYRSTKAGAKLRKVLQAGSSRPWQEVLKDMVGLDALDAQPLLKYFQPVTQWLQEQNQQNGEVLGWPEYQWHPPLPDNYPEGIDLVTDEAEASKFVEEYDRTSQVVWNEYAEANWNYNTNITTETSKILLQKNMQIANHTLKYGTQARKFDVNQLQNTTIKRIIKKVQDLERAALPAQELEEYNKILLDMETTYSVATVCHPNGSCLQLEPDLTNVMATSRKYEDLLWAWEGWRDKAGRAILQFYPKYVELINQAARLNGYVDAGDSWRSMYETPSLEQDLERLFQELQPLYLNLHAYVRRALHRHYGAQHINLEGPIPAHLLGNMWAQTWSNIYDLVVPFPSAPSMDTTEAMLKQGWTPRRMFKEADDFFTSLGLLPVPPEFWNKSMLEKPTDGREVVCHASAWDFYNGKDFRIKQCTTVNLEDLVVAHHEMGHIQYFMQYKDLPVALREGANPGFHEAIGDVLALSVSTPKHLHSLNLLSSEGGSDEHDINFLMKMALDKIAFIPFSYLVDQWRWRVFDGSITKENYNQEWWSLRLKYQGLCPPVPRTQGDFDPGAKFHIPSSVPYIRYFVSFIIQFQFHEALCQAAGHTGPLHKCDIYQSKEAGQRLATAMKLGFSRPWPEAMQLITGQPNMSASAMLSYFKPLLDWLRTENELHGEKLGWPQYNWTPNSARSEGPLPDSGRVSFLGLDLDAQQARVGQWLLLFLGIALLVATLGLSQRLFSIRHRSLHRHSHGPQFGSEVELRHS

[4] = biological target: Delta-type opioid receptor (Homo sapiens) (UniProt P41143); assay: DELTA2/H Cerep selectivity data (BI); details: Compound concentration 20.0 uM
Delta-type opioid receptor (Homo sapiens), sequence (P41143 whole entry): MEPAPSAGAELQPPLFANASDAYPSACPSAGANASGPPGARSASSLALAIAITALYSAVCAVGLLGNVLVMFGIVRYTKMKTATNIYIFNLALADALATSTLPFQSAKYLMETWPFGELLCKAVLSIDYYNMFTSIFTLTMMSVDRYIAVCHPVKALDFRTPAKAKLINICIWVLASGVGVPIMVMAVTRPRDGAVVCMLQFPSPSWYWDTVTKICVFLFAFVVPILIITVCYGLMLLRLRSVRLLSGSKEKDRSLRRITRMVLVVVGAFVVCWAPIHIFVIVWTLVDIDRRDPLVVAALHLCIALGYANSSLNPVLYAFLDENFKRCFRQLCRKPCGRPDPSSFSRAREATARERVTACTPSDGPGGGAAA

[5] = system: Fibroblast growth factor receptor 3 (Homo sapiens), P22607 [K650E]; assay: FGFR3 K650E Invitrogen selectivity data (BI); details: Compound concentration 3.0 uM
[6] = biological target: T2, Mitogen-activated protein kinase 13 (Homo sapiens) (UniProt O15264); assay: MAPK13 Invitrogen selectivity data (BI); details: Compound concentration 3.0 uM
T2 sequence (whole entry): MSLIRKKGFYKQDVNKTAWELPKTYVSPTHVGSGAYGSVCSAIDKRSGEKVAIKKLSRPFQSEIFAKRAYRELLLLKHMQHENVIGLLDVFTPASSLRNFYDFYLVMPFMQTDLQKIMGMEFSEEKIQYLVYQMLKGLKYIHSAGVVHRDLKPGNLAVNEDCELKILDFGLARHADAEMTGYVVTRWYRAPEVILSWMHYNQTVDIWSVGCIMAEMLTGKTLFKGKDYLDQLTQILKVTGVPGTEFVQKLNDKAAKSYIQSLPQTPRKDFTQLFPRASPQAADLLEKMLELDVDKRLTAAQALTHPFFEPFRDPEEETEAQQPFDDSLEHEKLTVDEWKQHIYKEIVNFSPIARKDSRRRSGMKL

[7] = biological target: L-type Ca2+ channel (diltiazem site), Cav1.2 alpha-1C (Rattus norvegicus, UniProt P22002); assay: CA+/DILSI/R Cerep selectivity data (BI); parameters: mode of action inhibitor; details: rat brain, probe [3H]diltiazem, compound concentration 20 uM, read-out: % Ctrl
L-type Ca2+ channel (diltiazem site), Cav1.2 alpha-1C, sequence (P22002 whole entry): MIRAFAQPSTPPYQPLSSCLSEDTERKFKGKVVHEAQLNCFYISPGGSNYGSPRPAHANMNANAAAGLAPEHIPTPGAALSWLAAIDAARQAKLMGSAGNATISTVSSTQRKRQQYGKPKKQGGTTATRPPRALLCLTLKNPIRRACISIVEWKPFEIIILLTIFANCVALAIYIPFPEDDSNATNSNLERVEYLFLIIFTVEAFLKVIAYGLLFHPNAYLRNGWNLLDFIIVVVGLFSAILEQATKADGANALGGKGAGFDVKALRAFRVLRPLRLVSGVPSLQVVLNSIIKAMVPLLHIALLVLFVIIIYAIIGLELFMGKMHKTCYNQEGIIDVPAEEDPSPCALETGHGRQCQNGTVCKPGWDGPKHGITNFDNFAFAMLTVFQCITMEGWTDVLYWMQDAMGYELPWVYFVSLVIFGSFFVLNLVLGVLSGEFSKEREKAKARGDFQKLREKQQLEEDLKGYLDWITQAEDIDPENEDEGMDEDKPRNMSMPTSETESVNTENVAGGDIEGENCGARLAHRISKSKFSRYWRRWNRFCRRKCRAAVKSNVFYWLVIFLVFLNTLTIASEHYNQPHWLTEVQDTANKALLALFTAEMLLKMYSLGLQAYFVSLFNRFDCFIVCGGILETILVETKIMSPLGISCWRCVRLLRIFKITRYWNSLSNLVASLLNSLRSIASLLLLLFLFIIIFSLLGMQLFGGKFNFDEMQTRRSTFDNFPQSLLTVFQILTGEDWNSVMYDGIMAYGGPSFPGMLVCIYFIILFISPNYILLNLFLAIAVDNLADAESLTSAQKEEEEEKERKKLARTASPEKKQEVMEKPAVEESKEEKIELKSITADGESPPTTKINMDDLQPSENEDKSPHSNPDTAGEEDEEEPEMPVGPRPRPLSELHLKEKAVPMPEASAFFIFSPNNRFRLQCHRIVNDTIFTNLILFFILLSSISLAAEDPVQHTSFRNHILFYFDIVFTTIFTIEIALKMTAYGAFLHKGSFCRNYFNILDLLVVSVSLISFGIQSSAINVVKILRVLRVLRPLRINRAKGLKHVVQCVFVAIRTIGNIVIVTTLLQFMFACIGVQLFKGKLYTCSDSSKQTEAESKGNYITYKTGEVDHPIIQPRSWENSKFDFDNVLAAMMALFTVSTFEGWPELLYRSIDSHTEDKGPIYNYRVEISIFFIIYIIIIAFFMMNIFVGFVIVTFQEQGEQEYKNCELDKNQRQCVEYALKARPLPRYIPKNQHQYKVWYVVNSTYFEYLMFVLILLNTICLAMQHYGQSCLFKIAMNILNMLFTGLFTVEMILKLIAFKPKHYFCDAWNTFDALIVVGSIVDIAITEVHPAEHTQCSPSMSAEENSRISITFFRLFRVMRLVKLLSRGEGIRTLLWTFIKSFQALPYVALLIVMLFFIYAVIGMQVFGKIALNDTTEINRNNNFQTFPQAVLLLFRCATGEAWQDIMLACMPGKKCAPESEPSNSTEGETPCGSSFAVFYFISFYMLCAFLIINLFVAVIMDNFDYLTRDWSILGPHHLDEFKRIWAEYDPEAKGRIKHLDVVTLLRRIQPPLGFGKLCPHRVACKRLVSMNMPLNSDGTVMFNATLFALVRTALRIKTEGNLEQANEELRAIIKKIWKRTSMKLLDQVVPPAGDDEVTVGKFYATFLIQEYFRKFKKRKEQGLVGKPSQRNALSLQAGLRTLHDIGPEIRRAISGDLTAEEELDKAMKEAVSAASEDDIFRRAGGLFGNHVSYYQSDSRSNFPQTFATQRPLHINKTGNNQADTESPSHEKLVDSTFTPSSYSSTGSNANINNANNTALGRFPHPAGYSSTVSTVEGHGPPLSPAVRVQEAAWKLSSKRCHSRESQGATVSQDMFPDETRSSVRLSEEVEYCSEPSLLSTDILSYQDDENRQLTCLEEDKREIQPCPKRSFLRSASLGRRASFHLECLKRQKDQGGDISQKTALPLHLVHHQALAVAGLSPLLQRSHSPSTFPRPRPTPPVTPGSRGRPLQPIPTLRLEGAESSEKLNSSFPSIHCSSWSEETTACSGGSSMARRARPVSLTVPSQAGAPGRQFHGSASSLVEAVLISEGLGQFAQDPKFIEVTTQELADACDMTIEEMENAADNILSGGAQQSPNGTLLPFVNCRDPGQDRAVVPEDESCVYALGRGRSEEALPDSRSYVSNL

[8] = biological target: T3, cGMP-dependent protein kinase 2 (Homo sapiens) (UniProt Q13237); assay: PRKG2 Invitrogen selectivity data (BI); details: Compound concentration 3.0 uM
T3 sequence (whole entry): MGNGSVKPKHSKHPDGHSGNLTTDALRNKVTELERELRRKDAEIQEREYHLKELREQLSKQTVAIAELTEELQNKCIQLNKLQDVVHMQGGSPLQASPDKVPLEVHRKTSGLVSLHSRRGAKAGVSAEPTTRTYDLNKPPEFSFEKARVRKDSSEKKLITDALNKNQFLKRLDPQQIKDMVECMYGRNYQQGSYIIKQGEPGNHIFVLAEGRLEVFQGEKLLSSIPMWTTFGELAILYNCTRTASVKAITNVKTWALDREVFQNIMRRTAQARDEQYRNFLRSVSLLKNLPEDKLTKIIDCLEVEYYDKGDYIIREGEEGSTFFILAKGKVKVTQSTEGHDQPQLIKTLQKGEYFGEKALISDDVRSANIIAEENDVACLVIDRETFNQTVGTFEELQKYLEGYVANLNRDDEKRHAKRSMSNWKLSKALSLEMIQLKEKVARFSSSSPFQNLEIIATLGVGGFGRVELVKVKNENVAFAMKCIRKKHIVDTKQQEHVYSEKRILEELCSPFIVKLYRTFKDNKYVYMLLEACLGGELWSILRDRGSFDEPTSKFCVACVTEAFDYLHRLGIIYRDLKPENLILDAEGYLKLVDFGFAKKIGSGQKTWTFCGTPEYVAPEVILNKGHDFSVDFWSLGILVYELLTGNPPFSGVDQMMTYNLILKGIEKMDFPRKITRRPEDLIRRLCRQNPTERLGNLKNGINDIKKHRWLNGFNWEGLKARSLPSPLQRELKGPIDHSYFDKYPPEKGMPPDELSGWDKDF

[9] = biological target: Corticotropin-releasing factor receptor 1 (Homo sapiens) (UniProt P34998); assay: CRF1/H Cerep selectivity data (BI); details: Compound concentration 20.0 uM
[10] = biological target: 5-hydroxytryptamine receptor 2B (Homo sapiens) (UniProt P41595); assay: 5HT2B/H AG Cerep selectivity data (BI); details: filed as agonist, Compound concentration 20.0 uM
[11] = biological target: Nicotinic acetylcholine receptor alpha-1/beta-1 (Homo sapiens) (UniProt P02708+P11230); assay: NACH_BS_N/H Eurofins-Panlabs selectivity data (BI); assay type: protein-complex assay; details: Compound concentration 10.0 uM
[12] = biological target: T4, Interleukin-1 receptor-associated kinase 4 (Homo sapiens) (UniProt Q9NWZ3); assay: IRAK4 Invitrogen selectivity data (BI); details: Compound concentration 3.0 uM
T4 sequence (whole entry): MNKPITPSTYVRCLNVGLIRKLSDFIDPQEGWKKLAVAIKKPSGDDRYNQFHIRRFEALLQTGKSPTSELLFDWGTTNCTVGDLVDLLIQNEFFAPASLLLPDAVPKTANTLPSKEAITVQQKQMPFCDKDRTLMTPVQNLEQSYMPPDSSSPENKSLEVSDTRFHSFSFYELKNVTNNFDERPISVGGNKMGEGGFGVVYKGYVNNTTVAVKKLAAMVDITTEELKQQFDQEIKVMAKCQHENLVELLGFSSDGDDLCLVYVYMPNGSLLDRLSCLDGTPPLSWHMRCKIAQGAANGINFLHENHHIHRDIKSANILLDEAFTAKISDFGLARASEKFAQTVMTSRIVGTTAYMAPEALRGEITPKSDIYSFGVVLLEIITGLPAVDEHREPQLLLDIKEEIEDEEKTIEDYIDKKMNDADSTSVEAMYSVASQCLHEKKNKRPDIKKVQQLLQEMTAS

[13] = biological target: Endothelin-1 receptor (Homo sapiens) (UniProt P25101); assay: ETA/H Cerep selectivity data (BI); details: Compound concentration 20.0 uM
[14] = biological target: Glycogen synthase kinase-3 alpha (Homo sapiens) (UniProt P49840); assay: GSK3A Invitrogen selectivity data (BI); details: Compound concentration 3.0 uM
[15] = biological target: Dual specificity tyrosine-phosphorylation-regulated kinase 1A (Homo sapiens) (UniProt Q13627); assay: DYRK1A Invitrogen selectivity data (BI); details: Compound concentration 3.0 uM
[16] = biological target: Serine/threonine-protein kinase pim-1 (Homo sapiens) (UniProt P11309); assay: PIM1 Invitrogen selectivity data (BI); details: Compound concentration 3.0 uM
[17] = biological target: Serine/threonine-protein kinase PLK2 (Homo sapiens) (UniProt Q9NYY3); assay: PLK2 Invitrogen selectivity data (BI); details: Compound concentration 3.0 uM
[18] = biological target: Tyrosine-protein kinase JAK1 (Homo sapiens) (UniProt P23458); assay: JAK1 Invitrogen selectivity data (BI); details: Compound concentration 3.0 uM
Tyrosine-protein kinase JAK1 (Homo sapiens), sequence (P23458 whole entry): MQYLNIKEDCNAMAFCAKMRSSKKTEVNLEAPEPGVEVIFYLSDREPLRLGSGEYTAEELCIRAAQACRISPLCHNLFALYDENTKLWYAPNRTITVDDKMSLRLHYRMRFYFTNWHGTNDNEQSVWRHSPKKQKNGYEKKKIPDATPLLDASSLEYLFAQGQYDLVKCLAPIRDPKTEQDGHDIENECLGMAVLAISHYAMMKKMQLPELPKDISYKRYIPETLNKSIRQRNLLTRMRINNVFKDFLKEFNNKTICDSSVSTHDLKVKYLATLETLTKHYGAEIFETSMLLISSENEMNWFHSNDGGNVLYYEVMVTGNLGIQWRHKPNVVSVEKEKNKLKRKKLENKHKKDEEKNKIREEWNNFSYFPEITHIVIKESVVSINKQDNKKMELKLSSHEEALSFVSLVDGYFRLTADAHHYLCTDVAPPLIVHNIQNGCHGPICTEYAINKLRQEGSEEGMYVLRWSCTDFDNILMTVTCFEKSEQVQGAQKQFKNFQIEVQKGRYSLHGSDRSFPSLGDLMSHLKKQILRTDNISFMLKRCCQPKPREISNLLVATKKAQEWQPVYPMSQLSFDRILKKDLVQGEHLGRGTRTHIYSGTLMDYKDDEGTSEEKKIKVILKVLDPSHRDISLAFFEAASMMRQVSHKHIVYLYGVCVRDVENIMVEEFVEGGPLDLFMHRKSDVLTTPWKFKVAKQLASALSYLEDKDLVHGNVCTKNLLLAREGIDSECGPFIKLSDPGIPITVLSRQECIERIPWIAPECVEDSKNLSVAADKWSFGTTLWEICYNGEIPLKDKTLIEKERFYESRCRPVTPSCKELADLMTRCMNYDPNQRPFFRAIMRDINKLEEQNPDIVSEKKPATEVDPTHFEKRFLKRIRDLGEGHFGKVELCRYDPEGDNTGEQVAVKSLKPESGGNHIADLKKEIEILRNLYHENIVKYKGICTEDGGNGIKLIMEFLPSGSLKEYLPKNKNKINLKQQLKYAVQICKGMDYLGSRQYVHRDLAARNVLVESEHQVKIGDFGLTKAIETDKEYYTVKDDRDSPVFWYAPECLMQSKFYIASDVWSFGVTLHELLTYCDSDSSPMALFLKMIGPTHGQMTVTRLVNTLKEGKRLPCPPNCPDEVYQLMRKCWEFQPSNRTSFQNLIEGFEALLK

CN(C)C(=O)Cn1cc(-c2nc(C3(c4ccc(-c5cnc(N)nc5)cc4)CC3)no2)cn1 [BI 0153]
residual activity [1]: 90%

CN(C)C(=O)Cn1cc(-c2nc([C@@](C)(c3ccc(-c4cnc(N)nc4)cc3)C3CC3)no2)cn1 [BI 665915]
residual activity [2]: 75.5%
residual activity [3]: 127%
residual activity [4]: 100%
residual activity [5]: 91%
residual activity [6]: 96.5%
activity at 20 µM [7]: 119% (not active)
residual activity [8]: 92.5%
residual activity [9]: 148%
residual activity [10]: 103%
residual activity [11]: 99%
residual activity [12]: 102%
residual activity [13]: 102%
residual activity [14]: 96%
residual activity [15]: 100%
residual activity [16]: 97.5%
residual activity [17]: 90%
residual activity [18]: 100%
